Read-outs that look alike come from different tables or passages of the source.
Columns and labels:
[1] = system: stable HCV 1a RLuc replicon cells (genotype 1a H77 replicon); assay: microbe, parasite or virus in culture; assay type: cell-based; details: Hepatitis C virus
[2] = system: stable HCV 2a JFH-1 Rluc replicon cells (L31 present in NS5A); assay: microbe, parasite or virus in culture; assay type: cell-based; details: Hepatitis C virus
[3] = system: NS5A chimeric genotype 1b Con1 replicon with genotype 3a S52 strain NS5A gene; assay: microbe, parasite or virus in culture; assay type: cell-based, HCV; details: Hepatitis C virus
Method in brief: (§1)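 Con1-based 3a and 4a chimeras carried a Pi-RLuc reporter and were transiently transfected into Huh-Lunet cells; the JFH-1-based 2b chimera (RLuc-Neo) was used transiently or as stable replicon cells.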

[4] = system: NS5A chimeric genotype 2a JFH-1 replicon with genotype 2a J6 strain NS5A gene (M31 present); assay: microbe, parasite or virus in culture; assay type: cell-based, HCV; details: Hepatitis C virus
[5] = system: NS5A chimeric genotype 2a JFH-1 replicon with genotype 2b MD2b-1 strain NS5A gene (M31 present); assay: microbe, parasite or virus in culture; assay type: cell-based, HCV; details: Hepatitis C virus
Method in brief: as §1

[6] = system: 1a Pi-Rluc replicon with Q30R in genotype 1a NS5A; assay: microbe, parasite or virus in culture; assay type: cell-based, HCV; details: Hepatitis C virus
Method in brief: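 Renilla luciferase replicon assay: 1a Pi-RLuc replicon carrying NS5A Q30R, transfected transiently into cured-51 (Huh-7-derived) cells.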

[7] = IV and PO single dose pharmacokinetic studies in SD rats; assay type: in vivo; details: male, Sprague-Dawley, rat, plasma, IV infusion 1 mg/kg vs oral gavage 2 mg/kg, read-out: Rat % F
Protocol: IV and PO Single Dose Pharmacokinetic Studies in SD Rats: The pharmacokinetics of selected compounds was characterized in male Sprague-Dawley (SD) rats (250-300g). […] The intravenous (IV) dosing vehicle was 5% ethanol, 35% polyethylene glycol 400 (PEG 400) and 60% water pH 2.0. […] Serial blood samples (approximately 0.3 mL each) were collected from jugular vein or other suitable vein at specified time points. […] The blood samples were collected into Vacutainer™ tubes containing EDTA-K3 as the anti-coagulant and were centrifuged at approximately 4° C. to obtain plasma. The plasma samples were stored at −20° C. until analysis by LC/MS/MS. A bioanalytical method utilizing high performance liquid chromatography coupled to tandem mass spectrometry (LC/MS/MS) was developed for analysis of the selected compound in rat plasma. Detection was performed using selected reaction monitoring (SRM); […] Standard curve and quality control samples were prepared in male rat plasma and processed in the same way as the test samples to generate quantitative data. Pharmacokinetic parameters were generated using non-compartmental pharmacokinetic analysis (Phoenix WinNonlin, version 6.3). Values below the lower limit of quantification (LLOQ) were assigned a value of zero if predose and treated as missing thereafter. Area under the curve (AUC) was calculated using the linear trapezoidal rule. The oral bioavailability (% F) was determined by comparison of the area under the curve (AUC) of the compound and/or a metabolite generated in plasma following oral administration to that generated following intravenous administration.

[8] = system: stable HCV 1b RLuc replicon cells (genotype 1b Con1 replicon); assay: microbe, parasite or virus in culture; assay type: cell-based; details: Hepatitis C virus, read-out: 1b (nM)
[9] = system: NS5A chimeric genotype 1b Con1 replicon with genotype 4a ED43 strain NS5A gene; assay: microbe, parasite or virus in culture; assay type: cell-based, HCV; details: Hepatitis C virus

| Compound | EC50 ([1]; read-out: 1a) | EC50 ([1]; read-out: 1a (nM)) | EC50 ([2]; read-out: 2a JFH) | EC50 ([2]; read-out: 2a JFH (nM)) | EC50 ([3]; read-out: 3a) | EC50 ([3]; read-out: 3a (nM)) | EC50 ([4]; read-out: 2a J6) | EC50 ([4]; read-out: 2a Jb (t) (nM)) | EC50 ([5]; read-out: 2b) | EC50 ([5]; read-out: 2b (s) (nM)) | EC50 ([5]; read-out: 2b (t) (nM)) | EC50 ([6]; read-out: 1a Q30R) | EC50 ([6]; read-out: 1a Q30R (nM)) | bioavailability [7] | EC50 [8] | EC50 ([4]; read-out: 2a J6 (s) (nM)) | EC50 ([9]; read-out: 4a) | EC50 ([9]; read-out: 4a (s) (nM)) | EC50 ([9]; read-out: 4a (t) (nM)) |
| --- | --- | --- | --- | --- | --- | --- | --- | --- | --- | --- | --- | --- | --- | --- | --- | --- | --- | --- | --- |
| COC(=O)N[C@H](C(=O)N1[C@@H](C)CC[C@H]1c1ncc(-c2ccc3c(c2)COc2cc4c(ccc5nc([C@@H]6C[C@H](C)CN6C(=O)[C@H](NC(=O)OC)c6ccccc6)[nH]c54)cc2-3)[nH]1)C(C)C [Compound 617] | < 1 nM | 0.009 nM | < 1 nM | 0.004 nM | < 1 nM | 0.019 nM | < 1 nM | 0.032 nM | < 1 nM | 0.011 nM | 0.013 nM | < 1 nM | 0.024 nM | 14.4% |  |  |  |  |  |
| COC[C@H]1C[C@@H](c2nc3ccc4cc5c(cc4c3[nH]2)OCc2cc(-c3cnc([C@@H]4CC6C[C@H]6N4C(=O)[C@@H](NC(=O)OC)C(C)C)[nH]3)ccc2-5)N(C(=O)[C@H](NC(=O)OC)c2ccccc2)C1 (stereo partly drawn) [Example LT, methyl{2-[2-{9-[2-(2-{2-[(methoxycarbonyl)amino]-3-methylbutanoyl}-2-azabicyclo[3.1.0]hex-3-yl)-1H-imidazol-5-yl]-1,11-dihydroisochromeno[4′,3′:6,7]naphtho[1,2-d]imidazol-2-yl}-4-(methoxymethyl)pyrrolidin-1-yl]-2-oxo-1-phenylethyl}carbamate] | < 1 nM | 0.009 nM | < 1 nM | 0.004 nM | < 1 nM | 0.012 nM | < 1 nM | 0.01 nM | < 1 nM | 0.039 nM | 0.009 nM | < 1 nM | 0.01 nM |  | 0.016 nM | 0.047 nM | < 1 nM | 0.009 nM | 0.015 nM |
| COC(=O)N[C@H](C(=O)N1CCC[C@H]1c1nc2c(ccc3cc4c(cc32)OCc2cc(-c3cnc([C@@H]5CCCN5C(=O)[C@H](NC(=O)OC)c5ccccc5)[nH]3)ccc2-4)[nH]1)C(C)C [Example MD] | < 1 nM | 0.035 nM | < 1 nM | 0.006 nM | < 1 nM | 0.006 nM | < 1 nM | 0.073 nM | < 1 nM | 0.038 nM | 0.016 nM | < 1 nM | 0.192 nM |  | 0.033 nM | 0.439 nM | < 1 nM | 0.035 nM | 0.011 nM |
| COC(=O)N[C@H](C(=O)N1CCC[C@H]1c1ncc(-c2ccc3c(c2)COc2cc4c(cc2-3)CCc2[nH]c([C@@H]3CCCN3C(=O)[C@@H](NC(=O)OC)C(C)C)nc2-4)[nH]1)C(C)C [Example ME] | < 1 nM | 0.033 nM | < 1 nM | 0.012 nM | < 1 nM | 0.015 nM | 1 to 4.99 nM | 3.43 nM | < 1 nM | 0.701 nM | 0.198 nM | 1 to 44 nM | 2.51 nM |  | 0.049 nM | 16.1 nM | < 1 nM | 0.029 nM | 0.016 nM |
| COC(=O)N[C@H](C(=O)N1CCC[C@H]1c1nc2c([nH]1)CCc1cc3c(cc1-2)OCc1cc(-c2cnc([C@@H]4CCCN4C(=O)[C@H](NC(=O)OC)c4ccccc4)[nH]2)ccc1-3)C(C)C [Example MF, methyl[1-(2-{5-[2-(1-{[(methoxycarbonyl)amino]-3-methyl-1-oxobutan-2-yl}pyrrolidin-2-yl)-1,4,5,11-tetrahydroisochromeno[4′,3′:6,7]naphtho[1,2-d]imidazol-9-yl]-1H-imidazol-2-yl}pyrrolidin-1-yl)-phenyl-1-oxoacet-2-yl]carbamate] | < 1 nM | 0.059 nM | < 1 nM | 0.012 nM | < 1 nM | 0.011 nM | < 1 nM | 0.476 nM | < 1 nM | 0.083 nM |  | < 1 nM | 0.768 nM |  | 0.058 nM | 2.14 nM | < 1 nM |  | 0.025 nM |
| COC(=O)N[C@H](C(=O)N1CCC[C@H]1c1ncc(-c2ccc3c(c2)COc2cc4c(cc2-3)CCc2[nH]c([C@@H]3CCCN3C(=O)[C@H](NC(=O)OC)c3ccccc3)nc2-4)[nH]1)C(C)C [Example MG] | < 1 nM | 0.054 nM | < 1 nM | 0.012 nM | < 1 nM | 0.01 nM | < 1 nM | 0.337 nM | < 1 nM | 0.07 nM |  | < 1 nM | 0.663 nM |  | 0.055 nM | 2.29 nM | < 1 nM | 0.08 nM | 0.024 nM |
| COC[C@H]1C[C@@H](c2ncc(-c3ccc4c(c3)COc3cc5c(ccc6nc([C@@H]7C[C@H]8C[C@H]8N7C(=O)[C@H](NC(=O)OC)c7ccccc7)[nH]c65)cc3-4)[nH]2)N(C(=O)[C@@H](NC(=O)OC)C(C)C)C1 [Example MV] | < 1 nM | 0.01 nM | < 1 nM | 0.004 nM | < 1 nM | 0.011 nM | < 1 nM | 0.047 nM | < 1 nM |  | 0.041 nM | < 1 nM | 0.012 nM |  | 0.014 nM | 0.034 nM | < 1 nM | 0.011 nM |  |

— US8575135B2 (Gilead Sciences, Inc., priority 2011, dated 2013)
